The text below walks through data of article PMC11434980, “Deciphering Chemical Rules for Drug Penetration into Strongyloides” (Pharmaceutics, 2024).

SMILES strings stand for the structures. “Also recorded” adds a separate entry of the source.

The test system of the first series is S. venezuelensis L3s. The experiment in a line: Staining (uptake) of L3 larvae by the dyes. It is filed as cell-based, Strongyloides venezuelensis.
Conditions: not given
The protocol: (§1) Baerman-obtained S. venezuelensis L3s were rinsed twice with distilled water and counted, and 100 to 150 larvae were placed per well in 96-well flat-bottom culture plates. Larvae were incubated at 28 °C for 30 min to allow adaptation and treated with compounds in the range of 0.5–40 µM for 72 h at 28 °C in a humid atmosphere. Mortality was assessed as the lack of any movement detected during 1 min of observation under an inverted microscope (40×), at 24, 48, and 72 h after treatment. The ability to stain the larvae was pointed out when observed; at 72 h, larvae were collected and washed two times with distilled water and placed in a new well to remove the background color and photographed. Pictures were also taken at 24 and 48 h without cleaning the larvae so as not to interfere with the 72 h readout of the experiment. […] All experiments were conducted in triplicate and at least three different times. The antiparasitic activity of the compounds was expressed as the concentration that inhibited the motility of half of the larvae (immobilization concentration 50, IC50).
Turning to `Cc1cc(-c2ccc(/N=N/c3c(S(=O)(=O)O)cc4cc(S(=O)(=O)O)cc(N)c4c3O)c(C)c2)ccc1/N=N/c1c(S(=O)(=O)O)cc2cc(S(=O)(=O)O)cc(N)c2c1O` [Trypan Blue], the “Staining 72 h (L3 staining ability)” value is recorded as “Yes”.

The same series, now with this note: 72 h.
With `Cc1cc(-c2ccc(/N=N/c3c(S(=O)(=O)O)cc4cc(S(=O)(=O)O)cc(N)c4c3O)c(C)c2)ccc1/N=N/c1c(S(=O)(=O)O)cc2cc(S(=O)(=O)O)cc(N)c2c1O` [Trypan Blue], the “lowest staining concentration (Conc)” value was determined as 20 µM.

Another series has as its system HeLa (human cervical cancer) cell line. The experiment in a line: Cytotoxicity, MTT method. It counts as cell-based. As to conditions: HeLa IC50 / L3 IC50. How it is done: (§2) A cytotoxicity test was performed using the HeLa (human cervical cancer) cell line according to the MTT method. Cells were from the ATCC (Manassas, VA, USA). They were cultured at 37 °C in sub-confluent conditions under a 95% humidified atmosphere and 5% CO2 in Dulbecco’s Modified Eagle Medium (DMEM) (Gibco, Whaltman, MA, USA) supplemented with 10% heat-inactivated FBS, 2 mM L-glutamine, 100 U/mL penicillin, and 100 µg/mL streptomycin. […] The antiproliferative activity was measured in triplicate after 72 h using the MTT (3-(4,5-dimethylthiazol-2-yl)-2,5-diphenyltetrazolium bromide) Cell Proliferation Kit (Roche, Boston, MA, USA), following the manufacturer’s specifications. […] The selectivity index (SI = HeLa IC50/L3 IC50) for each compound was calculated to compare the antiparasitic activity with its respective human cell cytotoxicity.
(In general: Tetrazolium assays rely on reduction of a dye to a coloured formazan, in cell work by metabolically active cells.)
`COC(=O)Nc1nc2ccc(C(=O)c3ccccc3)cc2[nH]1` [Mebendazole]: the “selectivity index (SI = HeLa IC50/L3 IC50)” value is listed as under 0.005.

For `CCCSc1ccc2nc(NC(=O)OC)[nH]c2c1` [Albendazole], the “selectivity index (SI = HeLa IC50/L3 IC50)” value is on record as under 0.0075.

Staying with this series, now noted: HeLa, MTT, 10 µM.
In the case of `Cc1ccc2nc(NC(=O)c3cccnc3)sc2c1` [Compound 20, N-(6-methylbenzo[d]thiazol-2-yl)nicotinamide], the “antiproliferative activity against HeLa cells at 10 µM” value is “no antiproliferative activity”.

Consider `Cc1ccc2nc(NC(=O)c3ccc(N4CCN(C)CC4)nc3)sc2c1` [Compound 22, N-(6-methylbenzo[d]thiazol-2-yl)-6-(4-methylpiperazin-1-yl)nicotinamide], for which the “antiproliferative activity against HeLa cells at 10 µM” value was “no antiproliferative activity”.

Tested on in another series: not listed separately
The series is described as follows: Cytotoxicity, MTT method. As to conditions: human; HeLa cells, 72 h, MTT; read-out: HeLa IC50 (antiproliferative activity / cytotoxicity). It is filed as cell-based, human. The protocol:
as §2
For the molecule `COC(=O)Nc1nc2ccc(C(=O)c3ccccc3)cc2[nH]1` [Mebendazole], the IC50 at 72 h was 0.2 µM.

Turning to `CCCSc1ccc2nc(NC(=O)OC)[nH]c2c1` [Albendazole], the IC50 at 72 h amounted to 0.3 µM.

As to `Cc1cc(-c2ccc(/N=N/c3c(S(=O)(=O)O)cc4cc(S(=O)(=O)O)cc(N)c4c3O)c(C)c2)ccc1/N=N/c1c(S(=O)(=O)O)cc2cc(S(=O)(=O)O)cc(N)c2c1O` [Trypan Blue], the IC50 at 72 h was over 10 µM.

The subject of the next series is S. venezuelensis L3s. The experiment in a line: microbe, parasite or virus in culture. As to conditions: L3S, 72 h, read-out: IC50 72 h (L3). How it is done: as §1
A total of 15 dyes were tested against S. venezuelensis L3s at a 20 µM concentration. The activity was determined by the number of larvae lacking motility relative to the total number in the well after 1 min of light excitation at 24, 48, and 72 h after treatment.
For the molecule `Cc1ccc2nc(NC(=O)c3cccnc3)sc2c1` [Compound 20, N-(6-methylbenzo[d]thiazol-2-yl)nicotinamide], the IC50 is over 20 µM.

Turning to `Cc1ccc2nc(NC(=O)c3ccc(N4CCN(C)CC4)nc3)sc2c1` [Compound 22, N-(6-methylbenzo[d]thiazol-2-yl)-6-(4-methylpiperazin-1-yl)nicotinamide], the IC50 was determined as 8.6 ± 2.3 µM.

The same series, now with this note: L3S, 72 h, read-out: L3 mortality rate.
On to `Cc1ccc2nc(NC(=O)c3ccc(N4CCN(C)CC4)nc3)sc2c1` [Compound 22, N-(6-methylbenzo[d]thiazol-2-yl)-6-(4-methylpiperazin-1-yl)nicotinamide], for which the mortality (commonly the share of the test organisms that died) at 20 µM turned out to be 100%.

Still in this series, the particulars now being: L3 motility, 72 h of treatment.
On to `Cc1cc(-c2ccc(/N=N/c3c(S(=O)(=O)O)cc4cc(S(=O)(=O)O)cc(N)c4c3O)c(C)c2)ccc1/N=N/c1c(S(=O)(=O)O)cc2cc(S(=O)(=O)O)cc(N)c2c1O` [Trypan Blue], for which the “significant activity against the L3s” value is on record as “did not show significant activity”.

The same series, now with this note: L3s, 20 µM, 72 h.
As for `Cc1ccc2nc(NC(=O)c3cccnc3)sc2c1` [Compound 20, N-(6-methylbenzo[d]thiazol-2-yl)nicotinamide], the “Activity against L3 @20 µM 72 h” value is “did not show any activity and no in vitro activity and No”.

On to `COC(=O)Nc1nc2ccc(C(=O)c3ccccc3)cc2[nH]1` [Mebendazole], for which the “Screening 20 µM 72 h” value is “No”.

As for `CCCSc1ccc2nc(NC(=O)OC)[nH]c2c1` [Albendazole], the “Screening 20 µM 72 h” value was “No”.

On to `Cc1ccc2nc(NC(=O)c3ccc(N4CCN(C)CC4)nc3)sc2c1` [Compound 22, N-(6-methylbenzo[d]thiazol-2-yl)-6-(4-methylpiperazin-1-yl)nicotinamide], for which the “Activity against L3 @20 µM 72 h” value is recorded as “Yes”.

Still in this series, the particulars now being: L3s, 40 µM.
For the molecule `COC(=O)Nc1nc2ccc(C(=O)c3ccccc3)cc2[nH]1` [Mebendazole], the “activity against L3 at 40 µM” value is “no activity”.

For `CCCSc1ccc2nc(NC(=O)OC)[nH]c2c1` [Albendazole], the “activity against L3 at 40 µM” value is recorded as “no activity”.

Another series deals with parasitic females of S. venezuelensis. The series is described as follows: In vitro activity against adult females (movement categories). As to conditions: 10 µM, 50–70 worms per well. It is filed as cell-based, Strongyloides venezuelensis. The protocol: Seven to nine days after infection, the mice or rats were euthanized and the small intestine was removed, sliced longitudinally, minced, and placed in a sedimentation cup wrapped in 8 layers of gauze in phosphate-buffered solution (PBS) for two hours at 37 °C. Parasitic females were collected from the sediment and washed twice with saline solution (NaCl 0.15 mol/L) and twice with Roswell Park Memorial Institute 1640 (RPMI 1640) (Gibco, Whaltman, MA, USA) supplemented with 10% heat-inactivated FBS, 100 µg/mL streptomycin, and 100 U/mL penicillin (Gibco, Whaltman, MA, USA) to avoid contamination during the in vitro assays. After collection, females were placed in 96-well plates with supplemented RPMI medium and kept at 37 °C. We tested three different female population densities to explore the effects on the measured activity: 1–3 females, 10–15 females, and 50–70 females per well. At 24 h after plating, the compounds were applied at 10 µM and the anti-parasitic activity was evaluated at 1, 24, 48, and 72 h after treatment based on movement for 30 s observation periods under the microscope (40×). […] All experiments were conducted in duplicate and at least three different times. […]
In the case of `COC(=O)Nc1nc2ccc(C(=O)c3ccccc3)cc2[nH]1` [Mebendazole], the “effect on adult females” value was “slightly reduced movement”.

Regarding `CCCSc1ccc2nc(NC(=O)OC)[nH]c2c1` [Albendazole], the “effect on adult females” value is reported as “slightly reduced movement”.

Still in this series, the particulars now being: 10 µM, 1 h, 50–70 worms per well.
As for `COC(=O)Nc1nc2ccc(C(=O)c3ccccc3)cc2[nH]1` [Mebendazole], the “Activity against parasitic females 1 h” value is given as “Healthy”.

As for `CCCSc1ccc2nc(NC(=O)OC)[nH]c2c1` [Albendazole], the “Activity against parasitic females 1 h” value is on record as “Healthy”.

The same series, now with this note: 10 µM, 24 h, 50–70 worms per well.
Regarding `COC(=O)Nc1nc2ccc(C(=O)c3ccccc3)cc2[nH]1` [Mebendazole], the “Activity against parasitic females 24 h” value is on record as “Healthy”.

As to `CCCSc1ccc2nc(NC(=O)OC)[nH]c2c1` [Albendazole], the “Activity against parasitic females 24 h” value is “Healthy”.

Still in this series, the particulars now being: 10 µM, 48 h, 50–70 worms per well.
Consider `COC(=O)Nc1nc2ccc(C(=O)c3ccccc3)cc2[nH]1` [Mebendazole], for which the “Activity against parasitic females 48 h” value was “Slightly affected”.

Regarding `CCCSc1ccc2nc(NC(=O)OC)[nH]c2c1` [Albendazole], the “Activity against parasitic females 48 h” value is on record as “Slightly affected”.

Staying with this series, now noted: 10 µM, 72 h, 50–70 worms per well.
Take `COC(=O)Nc1nc2ccc(C(=O)c3ccccc3)cc2[nH]1` [Mebendazole]: the “Activity against parasitic females 72 h” value was “Slightly affected”.

As to `CCCSc1ccc2nc(NC(=O)OC)[nH]c2c1` [Albendazole], the “Activity against parasitic females 72 h” value is “Slightly affected”.

Still in this series, the particulars now being: adult females, 72 h.
In the case of `Cc1ccc2nc(NC(=O)c3cccnc3)sc2c1` [Compound 20, N-(6-methylbenzo[d]thiazol-2-yl)nicotinamide], the “Activity against Adults @10 µM 72 h” value is “did not show any potency; also recorded: Healthy”.

In the case of `Cc1ccc2nc(NC(=O)c3ccc(N4CCN(C)CC4)nc3)sc2c1` [Compound 22, N-(6-methylbenzo[d]thiazol-2-yl)-6-(4-methylpiperazin-1-yl)nicotinamide], the “Activity against Adults @10 µM 72 h” value is given as “slightly affecting but not killing; also recorded: Slightly affected”.
